# Source: patent US20240307351A1, “AGENT FOR ANTI-AGING OR FOR CELLULAR REJUVENATION” (TOHOKU UNIVERSITY, priority 2022, published 2024)
# Legend:
# [1] = system: C57BL6 mice (92 weeks old); assay: Treadmill running test of aged mice; format: in vivo, mouse; details: aged C57BL6 mice (92 weeks old), oral, 50 mg/kg/day, 2 months
# Method: Water-suspended Compound #5 was orally administered to C57BL6 mice (92 weeks old) at a dose of 50 mg/kg/day per kg of mouse weight for 2 months ([MA5 addition group], n=5). After 2 months of oral administration, the mice were 101 weeks old.
# In addition, water was orally administered to C57BL6 mice (92 weeks old) for 2 months ([Vehicle group], n=5). After 2 months of oral administration, the mice were 101 weeks old.
# [2] = system: α-Klotho gene-deficient mice; assay: Survival rate of α-Klotho gene-deficient mice (Kaplan-Meier); format: in vivo; details: oral, 10 mg/kg mouse weight/day from 28 days old until death
# Method: Water-suspended Compound #5 was orally administered to α-Klotho gene-deficient mice (28 days old) as a premature aging animal model at a dose of 10 mg/kg mouse weight/day, the progress was observed until death, and the survival rate was evaluated from a survival curve based on the Kaplan-Meier method (Klotho homo KO mouse administration group, n=9).
# In addition, water was orally administered to α-Klotho gene-deficient mice (28 days old) until death (Klotho homo KO mouse non-administered group, n=9).
# PPARγ Gene = assay: Quantitative PCR of PPARγ Gene in brown adipocytes of Ndufs4−/− mice; format: in vivo, mouse; details: 10 mg/day per kg, 50 days, vs CMC administration group
# Method: Compound #5 was administered to NDUFS4 homozygous knockout mice (Ndufs4−/−mice) (4 weeks old) at a dose of 10 mg/day per kg of mouse weight for 50 days ([Compound #5 administration group]).
# In addition, CMC (carboxymethylcellulose) was administered to NDUFS4 homozygous knockout mice (Ndufs4−/−mice) at a dose of 10 mg/day per kg of mouse weight for 50 days ([CMC administration group; Control group]).
# Brown adipocytes were collected from the mice of [Compound #5 administration group] and [CMC administration group]. Total RNA was extracted from the brown adipocytes, and cDNA was prepared therefrom and used for measurement of mRNA expression level. The measurement was performed by a quantitative PCR method. The expression level of mRNA was determined with a relative ratio to β-actin used as an internal standard. As primers and probes, the following commercially available products (manufactured by Thermo Fisher Scientific Inc., and the like) were used. • Mouse Acts (actin beta, β-actin) Mm02619580_g1, Cat #4331182 • Mouse Ucp1 (uncoupling protein 1), Mm00494069_m1, Cat #4331182 • Mouse Pparg (PPARγ, peroxisome proliferator activated receptor gamma), Mm00440945_m1, Cat #4331182p • Mouse Fabp4 (fatty acid binding protein 4), Mm00445880_m1, Cat #4331182
# [3] = system: muscle cells of young mice; assay: RNA-Seq, pathway and ChIP-Atlas analysis of muscle cells of young mice; format: in vivo, mouse; details: oral, 50 mg/kg/day, 2 months
# Method: Water-suspended Compound #5 was orally administered to C57BL6 mice (12 weeks old) at a dose of 50 mg/kg/day per kg of mouse weight for 2 months ([MA5 addition group], n=5). After 2 months of oral administration, the mice were 20 weeks old.
# In addition, water was orally administered to C57BL6 mice (12 weeks old) for 2 months ([Vehicle group], n=5). After 2 months of oral administration, the mice were 20 weeks old.
# RNA sequencing (RNA-Seq) analysis was performed on the muscle cells of the young mice in [MA5 addition group] and [Vehicle group] to identify genes whose expression levels changed (increased or decreased) in [MA5 addition group] and [Vehicle group] compared to the muscle cells of young mice before administration. The results are illustrated in FIG. 16.
# Based on the names of genes whose expression levels increased or decreased in the young mice of [MA5 addition group] as compared with the young mice of [Vehicle group] in the RNA sequence (RNA-Seq) analysis, pathway analysis of genes whose expression levels varied in [MA5 addition group] was performed. The results are illustrated in FIG. 17. […]
# [4] = system: NDUFS4 homozygous knockout mice (Ndufs4−/−mice); assay: Electron microscopic observation of liver tissue (fatty liver) of Ndufs4−/− mice; format: in vivo; details: oral, 0.1 kg/day per mg of mouse weight, 24 days, vs Control 1 group (water)
# Excerpt: Compound #5 was orally administered to NDUFS4 homozygous knockout mice (Ndufs4−/−mice) (4 weeks old) at a dose of 0.1 kg/day per mg of mouse weight for 24 days ([Compound #5 administration group]).
# In addition, water was orally administered to NDUFS4 homozygous knockout mice (Ndufs4−/−mice) for 24 days ([DMSO group; Control 1 group]). Further, water was orally administered to wild-type mice for 24 days ([Control 2 group]).
# [5] = system: cochlear cells of the inner ear of Ndufs4 knockout mice; assay: RNA-Seq, pathway and ChIP-Atlas analysis of cochlear cells of Ndufs4 knockout mice; format: in vivo, mouse; details: oral, 50 mg/kg/day, 2 weeks
# Method: Water-suspended Compound #5 was orally administered to Ndufs4 (NADH-ubiquinone oxidoreductase subunit 4) knockout mice (6 weeks old) at a dose of 50 mg/kg/day per kg of mouse weight for 2 weeks ([MA5 addition group], n=5).
# In addition, water was orally administered to Ndufs4 knockout mice (6 weeks old) for 2 weeks ([Vehicle group], n=5).
# RNA sequence (RNA-Seq) analysis was performed on cochlear cells of the inner ear of Ndufs4 knockout mice of [MA5 addition group] and [Vehicle group] described above, and genes whose expression levels changed (increased or decreased) in [MA5 addition group] as compared with [Vehicle group] were identified. Based on the names of the genes, pathway analysis was performed on genes whose expression has varied in the inner ear cells of the Ndufs4 knockout mice in [MA5 addition group].
# The results of the names of the genes whose expression levels increased or decreased in the Ndufs4 knockout mice of [MA5 addition group] as compared with the Ndufs4 knockout mice of [Vehicle group] in the RNA sequence (RNA-Seq) analysis were used to perform integrated analysis with ChIP-Atlas to investigate transcription factors possibly related to these genes.
smiles,measurement,setting,value
"O=C(CC(C(=O)O)c1c[nH]c2ccccc12)c1ccc(F)cc1F (stereo not drawn) [Compound #5, 4-(2,4-difluorophenyl)-2-(1H-indole-3-yl)-4-oxo-butanoic acid]",running time on a treadmill,[1],not reduced
same,time until exhaustion (percentage of mice that continue running),[1]; compared to Vehicle group,significantly improved
same,survival rate,[2],significantly increased
same,expression of PPARγ Gene,PPARγ Gene,significantly higher
same,"expression levels of genes related to differentiation, development, and the like of muscles such as Tbx1 Gene",[3],increased
same,transcription factors related to the genes whose expression increased (ChIP-Atlas),[3]; Table 2,SUZ^12 and EZH2
same,fat deposition in hepatocytes (fatty liver),[4],clear reduction
same,IGF1 signaling pathway (pathway analysis),[5],enhanced
same,transcription factors related to genes whose expression increased (ChIP-Atlas),[5]; Table 5,"SOX2 and MYC, which are reprogramming factors necessary for the production of iPS cells, and POU2F1 (OCT1)"
